pIC50: −log10 of the molar value.
Tests used:
[1] = system: MV-4-11 (biphenotypic B myelomonocytic leukemia) cells; assay: In vitro cell proliferation assay (CellTiter-Glo); type: cell-based; settings: Homo sapiens, MV4-11, MV-4-11 cells, 72 hours
Description: In vitro Cell Proliferation Assay
MV-4-11 (biphenotypic B myelomonocytic leukemia) cells (1250 cells/well) were seeded in white 384 well-plates in complete medium (RPMI 1640 or EMEM plus 10% Fetal bovine serum) and treated with compounds dissolved in 0.1% DMSO, 24 h after seeding. The cells were incubated at 37° C. and 5% CO2 and after 72 hours the plates were processed using CellTiter-Glo assay (Promega) following the manufacturer's instruction.
CellTiter-Glo is a homogenous method based on the quantification of the ATP present, an indicator of metabolically active cells. ATP is quantified using a system based on luciferase and D-luciferin resulting into light generation. The luminescent signal is proportional to the number of cells present in culture.
Briefly 25 μl/well reagent solution were added to each wells and after 5 minutes shacking microplates were red by Envision (PerkinElmer) luminometer. The luminescent signal was proportional to the number of cells present in culture.
Inhibitory activity was evaluated comparing treated versus control data using Assay Explorer (MDL) program. IC50 was calculated using sigmoidal interpolation curve.

Full-length human PIM2 = Full-length human PIM2 (Homo sapiens (Human), UniProt Q9P1W9); assay: PIM2 kinase inhibition assay: Dowex technique; type: biochemical; settings: ATP 4 μM, Aktide 5 μM, enzyme 1.5 nM; read-out: PIM-2 IC50
Sequence of Full-length human PIM2 (Q9P1W9 whole entry): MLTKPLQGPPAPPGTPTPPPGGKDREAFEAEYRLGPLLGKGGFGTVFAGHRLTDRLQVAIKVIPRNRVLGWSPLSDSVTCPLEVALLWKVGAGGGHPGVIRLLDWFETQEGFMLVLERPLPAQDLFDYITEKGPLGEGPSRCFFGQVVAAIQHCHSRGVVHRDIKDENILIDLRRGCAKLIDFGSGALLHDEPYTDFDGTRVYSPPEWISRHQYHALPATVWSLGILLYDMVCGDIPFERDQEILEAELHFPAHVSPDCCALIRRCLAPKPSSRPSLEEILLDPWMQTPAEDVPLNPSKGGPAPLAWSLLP
Description: Method for PIM2 Kinase Inhibition Assay: Dowex Technique
The buffer for PIM2 assay was composed of HEPES 50 mM, at pH 7.5, with 1 mM MgCl2, 1 mM DTT, 3 μM Na3VO4, and 0.2 mg/mL BSA.
Full-length human PIM2 was expressed and purified as described in Fedorov O, et al., PNAS 2007 104, 51, 20523-28.
Enzyme concentration=1.5 nM
Aktide substrate (Chemical Abstract Service Registry Number 324029-01-8)=5 μM
See above: same procedure as described for PIM1.

Full-length human PIM1 = Full-length human PIM1 (Homo sapiens (Human), UniProt P11309); assay: Biochemical assay for inhibitors of PIM1 kinase activity (33P trans-phosphorylation, Dowex); settings: ATP 200 μM, Aktide 25 μM, enzyme 1 nM; read-out: PIM-1 IC50
Sequence of Full-length human PIM1 (P11309 whole entry): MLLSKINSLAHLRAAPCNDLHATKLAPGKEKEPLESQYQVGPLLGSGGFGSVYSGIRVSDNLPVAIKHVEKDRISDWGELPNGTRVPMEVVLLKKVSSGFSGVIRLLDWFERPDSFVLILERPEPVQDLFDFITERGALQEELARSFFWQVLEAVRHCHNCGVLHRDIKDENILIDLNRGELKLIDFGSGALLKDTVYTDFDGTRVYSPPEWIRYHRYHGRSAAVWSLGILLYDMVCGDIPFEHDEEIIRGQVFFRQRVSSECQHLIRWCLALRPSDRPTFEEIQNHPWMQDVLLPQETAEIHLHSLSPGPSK
Description: The short forms and abbreviations used herein have the following meaning: • Ci Curie • DMSO dimethylsulfoxide • KDa kiloDalton • microCi microCurie • mg milligram • microg microgram • ng nanogram • L liter • mL milliliter • μL microliter • M molar • mM millimolar • μM micromolar • nM nanomolar Biochemical Assay for Inhibitors of PIM1 Kinase Activity
The inhibitory activity of putative kinase inhibitors and the potency of selected compounds were determined using a trans-phosphorylation assay.
Specific peptide or protein substrates are trans-phosphorylated by their specific ser-thr or tyr kinase in the presence of ATP traced with ^33P-γ-ATP, and in the presence of their own optimal buffer and cofactors.
At the end of the phosphorylation reaction, more than 98% unlabeled ATP and radioactive ATP is captured by an excess of the ion exchange Dowex resin; the resin then settles down to the bottom of the reaction plate by gravity. Supernatant is subsequently withdrawn and transferred into a counting plate, then evaluated by β-counting.
The buffer for PIM1 assay was composed of HEPES 50 mM, at pH 7.5, with 10 mM MgCl2, 1 mM DTT, 3 μM NaVO3, and 0.2 mg/mL BSA.
Full-length human PIM1 was expressed and purified as described in Bullock A N, et al., J. Biol. Chem. 2005, 280, 41675-82.
ATP concentration: 200 μM
Enzyme concentration: 1 nM
Substrate concentration Aktide (Chemical Abstract Service Registry Number 324029-01-8): 25 μM
The test mix consisted of: • 1) 3× Enzyme mix (done in Kinase Buffer 3×), 5 μL/well • 2) 3× substrate and ATP mix (done in ddH2O), together with ^33P-γ-ATP, 5 μL/well • 3) 3× test compounds (diluted into ddH2O-3% DMSO)—5 μL/well
An automated station (Biomek FX, Beckman) was used for serial dilutions, producing 1:3 dilutions in 100% DMSO, from line A1 to A10, for all the compounds in the column. […] In a standard experiment, the highest concentration (3×) of compounds is typically 30 μM, while the lowest one is typically 1.5 nM. Each 384-well plate generates at least one curve of the standard inhibitor staurosporine and reference wells (total enzyme activity vs. no enzymatic activity) for evaluation of Z′ and signal to background (SIB) ratio.
384-well plates, V bottom (test plates) are prepared with 5 μl of compound diluted as previously described (3×) and then placed onto a PlateTrak 12 robotized station (Perkin Elmer; the robot has one 384-tip pipetting head for assay start, plus one 96-tip head for dispensing resin) together with one reservoir for Enzyme mix (3×) and one for ATP mix (3×).
Data are analyzed by an internally customized version of the “Assay Explorer” SW package, which provides sigmoidal fitting of the ten-dilution curves for IC50 determination in secondary assay/hit confirmation routines.

| Compound | pIC50 [1] | pIC50 (Full-length human PIM2) | pIC50 (Full-length human PIM1) |
| --- | --- | --- | --- |
| CN1CCN(C[C@@H](NC(=O)C[C@H]2CNC(=O)c3cc(-c4cc(Cl)ccc4F)cn32)C2CCCCC2)CC1 [Compound 26, 2-[(4S)-7-(5-chloro-2-fluorophenyl)-1-oxo-1,2,3,4-tetrahydropyrrolo[1,2-a]pyrazin-4-yl]-N-[(1S)-1-cyclohexyl-2-(4-methylpiperazin-1-yl)ethyl]acetamide] | 5.94 | 6.88 | 8.70 |
| CN1CCN(C[C@@H](NC(=O)C[C@H]2CNC(=O)c3cc(-c4cccc(Cl)c4)cn32)C2CCCCC2)CC1 [Compound 2, 2-[(4S)-7-(3-chlorophenyl)-1-oxo-1,2,3,4-tetrahydropyrrolo[1,2-a]pyrazin-4-yl]-N-[(1S)-1-cyclohexyl-2-(4-methylpiperazin-1-yl)ethyl]acetamide] | 5.82 | – | 9.00 |
| CN(C)C1CCN(C[C@@H](NC(=O)C[C@H]2CNC(=O)c3cc(-c4ccnc(F)c4)cn32)C2CCCCC2)CC1 [Compound 10, N-{(1S)-1-cyclohexyl-2-[4-(dimethylamino)piperidin-1-yl]ethyl}-2-[(4S)-7-(2-fluoropyridin-4-yl)-1-oxo-1,2,3,4-tetrahydropyrrolo[1,2-a]pyrazin-4-yl]acetamide] | 5.17 | 7.24 | 8.22 |
| CN(C)C1CCN(C[C@@H](NC(=O)C[C@H]2CNC(=O)c3cc(-c4cccc(Cl)c4)cn32)C2CCCCC2)CC1 [Compound 23, 2-[(4S)-7-(3-chlorophenyl)-1-oxo-1,2,3,4-tetrahydropyrrolo[1,2-a]pyrazin-4-yl]-N-{(1S)-1-cyclohexyl-2-[4-(dimethylamino)piperidin-1-yl]ethyl}acetamide] | 5.95 | 7.44 | 9.00 |
| CN(C)C1CCN(C[C@@H](NC(=O)C[C@H]2CNC(=O)c3cc(-c4ccc(F)c(F)c4)cn32)C2CCCCC2)CC1 [Compound 6, N-{(1S)-1-cyclohexyl-2-[4-(dimethylamino)piperidin-1-yl]ethyl}-2-[(4S)-7-(3,4-difluorophenyl)-1-oxo-1,2,3,4-tetrahydropyrrolo[1,2-a]pyrazin-4-yl]acetamide] | 5.50 | 6.77 | 8.10 |

Source: patent US9145418B2, “Substituted 3,4-dihydropyrrolo[1,2-a]pyrazin-1(2H)-ones as protein kinase inhibitors” (NERVIANO MEDICAL SCIENCES S.R.L., priority 2011, dated 2015)
